In patent US20210395327A1, “Growth Hormone-Releasing Hormone Antagonists and Uses Thereof” (United States Government As Represented By The Department …, priority 2019, published 2021):
Entries after “also recorded” stand apart in the source; their conditions may differ. Non-standard residues stand in square brackets, D forms with d. Residues, ends and D or L forms follow the SMILES beside them. *: point of attachment. Phenylacetyl(2,3,4,5,6-F5) = O=C(Cc1c(F)c(F)c(F)c(F)c1F)*; Phe(F5) = N[C@@H](Cc1c(F)c(F)c(F)c(F)c1F)C(=O)O; Phe(4-Cl) = N[C@@H](Cc1ccc(Cl)cc1)C(=O)O; hArg = N=C(N)NCCCC[C@H](N)C(=O)O; 12Ado = NCCCCCCCCCCCC(=O)O; Nle = CCCC[C@H](N)C(=O)O; Orn = NCCC[C@H](N)C(=O)O; Abu = CC[C@H](N)C(=O)O; PhAc = O=C(Cc1ccccc1)*

Columns and labels:
[1] = system: HCC827 lung cancer cells; experiment: In vitro cell viability, HCC827; format: cell-based, human; settings: for In vitro relative inhibitory potency in comparison to MIA-602, HCC827: Table 3B, 5 μM for 72 H, MIA-602 = 1; for relative inhibitory potency in comparison to MIA-602, Lung IICC827: antagonist 5 μM for 72 h, cell proliferation assay, MIA602 = 1
How it was run: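 Viability by CellTiter 96 aqueous one solution (MTS) after 72 h exposure to antagonist at 5 μM (some at 2 μM), following 24 h starvation in 0.5% FBS. Results given as percentage inhibition relative to MIA602.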

[2] = system: GH release from rat pituitary cells; experiment: Inhibition of GH release from rat pituitary cells in vitro (GH ELISA); format: cell-based; settings: for Relative GH release: analogs 20 nM, then with 1 nM GHRH(1-29)NH2 for 30 minutes, Control = 1.00; for inhibitory effects on the release of GH, compared with MIA-602 (in words): rat pituitary cells in vitro, 20 nM
Procedure: In vitro assessment of the antagonistic activity of GHRH analogs. Rats were decapitated and pituitaries were collected in pre-warmed HBSS (Hanks' Balanced Salt Solution). Tissue was then cut into small pieces and digested in HBSS medium containing 3% BSA, 50 μg/ml gentamycin and 0.5% collagenase for 50 minutes at 37° C. Cells were further dispersed by pipetting and passed through a 100 μm cell strainer with the addition of DMEM containing 50 μg/ml gentamycin. 10% horse serum and 2.5% FBS (growth medium). Cells were harvested at 475×g for 2 minutes, resuspended in fresh growth medium and seeded onto poly-D-lysine-coated 24-well plates (7 pituitaries/plate). Cells were left to recover for 4 days. Growth medium was then replaced with serum-free DMEM for 4 hours and GHRH analogs (at concentration of 20 nM) were added in DMEM containing 0.1% BSA for 30 minutes. Cells were replenished with medium containing the same concentration of the analogs and 1 nM GHRH(1-29)NH2 for 30 minutes. Medium from this step was collected, centrifuged at 800 g for 3 minutes and GH concentration was determined by ELISA (ALPCO Diagnostics, Mill Valley, Calif.) according to the manufacturer's instruction.

[3] = target: T1, membrane GHRH-receptors on human anterior pituitary cells (Homo sapiens, UniProt Q02643); experiment: Receptor binding, displacement of 125I-[His1,Nle27]-hGH-RH(1-32)NH2 on human pituitary membranes; settings: for binding affinity to membrane receptors of human pituitary cells (in words): competitive binding, human pituitary membrane fractions; for IC50: membrane receptors on human anterior pituitary cells, mean of two to three determinations, read-out: IC50
T1 construct: Human pituitary was purchased from the National Hormone and Peptide Program; tissue National Hormone and Peptide Program; host or cells: human pituitary (membrane fractions)
T1 sequence (Q02643 23-423): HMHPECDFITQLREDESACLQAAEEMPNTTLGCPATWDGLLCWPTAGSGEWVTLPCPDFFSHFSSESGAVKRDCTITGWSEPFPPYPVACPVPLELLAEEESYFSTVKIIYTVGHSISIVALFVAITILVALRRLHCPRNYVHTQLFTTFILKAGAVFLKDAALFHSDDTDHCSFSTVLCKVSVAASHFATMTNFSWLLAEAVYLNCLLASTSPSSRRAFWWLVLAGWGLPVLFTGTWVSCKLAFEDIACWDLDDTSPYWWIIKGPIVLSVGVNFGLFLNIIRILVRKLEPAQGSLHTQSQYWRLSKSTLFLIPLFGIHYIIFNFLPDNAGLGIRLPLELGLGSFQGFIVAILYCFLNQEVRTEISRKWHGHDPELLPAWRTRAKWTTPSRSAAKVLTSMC
How it was run: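 Membrane fractions from human pituitary; peptides displace 125I-[His1,Nle27]-hGH-RH(1-32)NH2. IC50 is the dose giving 50% inhibition of specific binding, from duplicate tubes. Relative affinity is the ratio of test IC50 to hGH-RH(1-29)NH2 IC50.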

SMILES	In vitro relative inhibitory potency in comparison to MIA-602, HCC827 [1]	relative inhibitory potency in comparison to MIA-602, Lung IICC827 [1]	Relative GH release [2]	inhibitory effects on the release of GH, compared with MIA-602 (in words) [2]	binding affinity to membrane receptors of human pituitary cells (in words) [3]	IC50 [3]
CCCC[C@H](NC(=O)[C@@H](NC(=O)[C@H](CC(=O)O)NC(=O)[C@H](CCC(N)=O)NC(=O)[C@H](CC(C)C)NC(=O)[C@H](CC(C)C)NC(=O)[C@H](CCCN)NC(=O)[C@H](Cc1c[nH]cn1)NC(=O)[C@H](C)NC(=O)[C@H](CO)NC(=O)[C@H](CC(C)C)NC(=O)[C@H](CCC(N)=O)NC(=O)[C@H](CC)NC(=O)[C@H](CC(C)C)NC(=O)[C@@H](NC(=O)[C@H](CCCN)NC(=O)[C@H](Cc1c[nH]cn1)NC(=O)[C@H](Cc1ccc(OC)cc1)NC(=O)[C@H](CCCCNC(=N)N)NC(=O)[C@H](C)NC(=O)[C@@H](NC(=O)[C@H](Cc1c(F)c(F)c(F)c(F)c1F)NC(=O)[C@@H](NC(=O)[C@H](C)NC(=O)[C@H](CC(=O)O)NC(=O)[C@@H](CCCNC(=N)N)NC(=O)[C@H](Cc1ccc(O)cc1)NC(=O)CCCCCCCCCCCNC(=O)Cc1ccccc1)[C@@H](C)CC)[C@@H](C)O)C(C)C)[C@@H](C)CC)C(=O)N[C@H](CCCNC(=N)N)C(=O)N[C@@H](CCCCNC(=N)N)C(N)=O [MIA-602, PhAC-Ada, Tyr D-Arg, Asp, Ala, Ile, 5FPhe, Thr, Ala, Har, Tyr(Me), His, Orn, Val, Leu, Abu, Gin, Leu, Ser, Ala, His, Om, Leu, Leu, Gin, Asp, Ile; Nle, D-Arg, Har NH2, reference compound] ({PhAc-12Ado}-Y[dR]DAI[Phe(F5)]TA[hArg]Y(Me)H[Orn]VL[Abu]QLSAH[Orn]LLQDI[Nle][dR][hArg]-NH2)	1	1	0.78 ± 0.01			
CCCC[C@H](NC(=O)[C@@H](NC(=O)[C@H](CC(=O)O)NC(=O)[C@H](CCC(N)=O)NC(=O)[C@H](CC(C)C)NC(=O)[C@H](CC(C)C)NC(=O)[C@H](CCCCN)NC(=O)[C@H](CCCNC(=N)N)NC(=O)[C@H](C)NC(=O)[C@H](CO)NC(=O)[C@H](CC(C)C)NC(=O)[C@H](CCC(N)=O)NC(=O)[C@H](CC)NC(=O)[C@H](CC(C)C)NC(=O)[C@@H](NC(=O)[C@H](CCCCN)NC(=O)[C@H](CCCNC(=N)N)NC(=O)[C@H](Cc1ccc(OC)cc1)NC(=O)[C@H](CCCCNC(=N)N)NC(=O)[C@H](C)NC(=O)[C@@H](NC(=O)[C@H](Cc1c(F)c(F)c(F)c(F)c1F)NC(=O)[C@@H](NC(=O)[C@H](C)NC(=O)[C@H](CC(=O)O)NC(=O)[C@@H](CCCNC(=N)N)NC(=O)[C@H](Cc1ccc(O)cc1)NC(=O)CCCCCCCCCCCNC(=O)Cc1c(F)c(F)c(F)c(F)c1F)[C@@H](C)CC)[C@@H](C)O)C(C)C)[C@@H](C)CC)C(=O)N[C@H](CCCNC(=N)N)C(=O)N[C@@H](CCCCNC(=N)N)C(=O)NC [AVR-235] ({Phenylacetyl(2,3,4,5,6-F5)-12Ado}-Y[dR]DAI[Phe(F5)]TA[hArg]Y(Me)RKVL[Abu]QLSARKLLQDI[Nle][dR][hArg]-NHMe)	1.08	1.506	0.60 ± 0.02	higher inhibitory effects than MIA-602		
CCCC[C@H](NC(=O)[C@@H](NC(=O)[C@H](CC(=O)O)NC(=O)[C@H](CCC(N)=O)NC(=O)[C@H](CC(C)C)NC(=O)[C@H](CC(C)C)NC(=O)[C@H](CCCCN)NC(=O)[C@H](CCCNC(=N)N)NC(=O)[C@H](C)NC(=O)[C@H](CO)NC(=O)[C@H](CC(C)C)NC(=O)[C@H](CCC(N)=O)NC(=O)[C@H](CC)NC(=O)[C@H](CC(C)C)NC(=O)[C@@H](NC(=O)[C@H](CCCCN)NC(=O)[C@H](CCCNC(=N)N)NC(=O)[C@H](Cc1c(F)c(F)c(F)c(F)c1F)NC(=O)[C@H](CCCCNC(=N)N)NC(=O)[C@H](C)NC(=O)[C@@H](NC(=O)[C@H](Cc1ccc(Cl)cc1)NC(=O)[C@@H](NC(=O)[C@H](C)NC(=O)[C@H](CC(=O)O)NC(=O)[C@@H](CCCNC(=N)N)NC(=O)[C@H](Cc1ccc(O)cc1)NC(=O)CCCCCCCCCCCNC(=O)Cc1c(F)c(F)c(F)c(F)c1F)[C@@H](C)CC)[C@@H](C)O)C(C)C)[C@@H](C)CC)C(=O)N[C@H](CCCNC(=N)N)C(=O)N[C@@H](CCCCNC(=N)N)C(=O)NCCCCCCCCCCCC(N)=O [AVR-353, 5FPhAC-Ada-Tyr-DArg-Asp-Ala-Ile-Cpa-Thr-Ala-Har-5FPhe-Arg-Lys-Val-Leu-Abu-Gln-Leu-Ser-Ala-Arg-Lys-Leu-Leu-Gln-Asp-Ile-Nle-DArg-Har-Ada-NH2] ({Phenylacetyl(2,3,4,5,6-F5)-12Ado}-Y[dR]DAI[Phe(4-Cl)]TA[hArg][Phe(F5)]RKVL[Abu]QLSARKLLQDI[Nle][dR][hArg][12Ado]-NH2)	1.641		0.65 ± 0.08	higher inhibitory effects than MIA-602	higher binding affinity in comparison to MIA-602; also recorded: highest binding affinities	0.11 nM
CCCC[C@H](NC(=O)[C@@H](NC(=O)[C@H](CC(=O)O)NC(=O)[C@H](CCC(N)=O)NC(=O)[C@H](CC(C)C)NC(=O)[C@H](CC(C)C)NC(=O)[C@H](CCCN)NC(=O)[C@H](Cc1c[nH]cn1)NC(=O)[C@H](C)NC(=O)[C@H](CO)NC(=O)[C@H](CC(C)C)NC(=O)[C@H](CCC(N)=O)NC(=O)[C@H](CC)NC(=O)[C@H](CC(C)C)NC(=O)[C@@H](NC(=O)[C@H](CCCN)NC(=O)[C@H](Cc1c[nH]cn1)NC(=O)[C@H](Cc1c(F)c(F)c(F)c(F)c1F)NC(=O)[C@H](CCCCNC(=N)N)NC(=O)[C@H](C)NC(=O)[C@@H](NC(=O)[C@H](Cc1ccc(Cl)cc1)NC(=O)[C@@H](NC(=O)[C@H](C)NC(=O)[C@H](CC(=O)O)NC(=O)[C@@H](CCCNC(=N)N)NC(=O)[C@H](Cc1ccc(O)cc1)NC(=O)CCCCCCCCCCCNC(=O)Cc1c(F)c(F)c(F)c(F)c1F)[C@@H](C)CC)[C@@H](C)O)C(C)C)[C@@H](C)CC)C(=O)N[C@H](CCCNC(=N)N)C(=O)N[C@@H](CCCCNC(=N)N)C(=O)NCCCCCCCCCCCC(=O)NC [AVR-543, 5FPhAC-Ada-Tyr-DArg-Asp-Ala-Ile-Cpa-Thr-Ala-Har-5FPhe-His-Orn-Val-Leu-Abu-Gln-Leu-Ser-Ala-His-Orn-Leu-Leu-Gln-Asp-Ile-Nle-DArg-Har-Ada-NHCH3] ({Phenylacetyl(2,3,4,5,6-F5)-12Ado}-Y[dR]DAI[Phe(4-Cl)]TA[hArg][Phe(F5)]H[Orn]VL[Abu]QLSAH[Orn]LLQDI[Nle][dR][hArg][12Ado]-NHMe)	0.961		1.10 ± 0.01			0.25 nM
CCCC[C@H](NC(=O)[C@@H](NC(=O)[C@H](CC(=O)O)NC(=O)[C@H](CCC(N)=O)NC(=O)[C@H](CC(C)C)NC(=O)[C@H](CC(C)C)NC(=O)[C@H](CCCCN)NC(=O)[C@H](CCCNC(=N)N)NC(=O)[C@H](C)NC(=O)[C@H](CO)NC(=O)[C@H](CC(C)C)NC(=O)[C@H](CCC(N)=O)NC(=O)[C@H](CC)NC(=O)[C@H](CC(C)C)NC(=O)[C@@H](NC(=O)[C@H](CCCCN)NC(=O)[C@H](CCCNC(=N)N)NC(=O)[C@H](Cc1c(F)c(F)c(F)c(F)c1F)NC(=O)[C@H](CCCCNC(=N)N)NC(=O)[C@H](C)NC(=O)[C@@H](NC(=O)[C@H](Cc1ccc(Cl)cc1)NC(=O)[C@@H](NC(=O)[C@H](C)NC(=O)[C@H](CC(=O)O)NC(=O)[C@@H](CCCNC(=N)N)NC(=O)[C@H](Cc1ccc(O)cc1)NC(=O)CCCCCCCCCCCNC(=O)Cc1c(F)c(F)c(F)c(F)c1F)[C@@H](C)CC)[C@@H](C)O)C(C)C)[C@@H](C)CC)C(=O)N[C@H](CCCNC(=N)N)C(=O)N[C@@H](CCCCNC(=N)N)C(=O)NCCCCCCCCCCCC(=O)NC [AVR-354] ({Phenylacetyl(2,3,4,5,6-F5)-12Ado}-Y[dR]DAI[Phe(4-Cl)]TA[hArg][Phe(F5)]RKVL[Abu]QLSARKLLQDI[Nle][dR][hArg][12Ado]-NHMe)	2.595		0.90 ± 0.02		higher binding affinity in comparison to MIA-602; also recorded: highest binding affinities	
